Measurements: PubChem BioAssay AID248 (DTP/NCI, 2004)
Toxic doses and inconclusive results are not listed. No stated cut-off is given here; in the data, active means T/C of 150% or more; inactive means T/C below 125%.

Tested on: L1210 leukemia ip in BDF1 mice, survival T/C
Assay: NCI In Vivo Anticancer Drug Screen. Data for tumor model L1210 Leukemia (intraperitoneal) in B6D2F1 (BDF1) mice
Details: endpoint: mean survival time, higher = longer survival
How it was run: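 Transplantable tumor model; survival measured in treated vs vehicle control mice. Value = treated/control.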

[1] = dose: 100.0 mg/kg/injection, schedule: Q01DX001 (ip), vehicle: Klucel (hydroxypropylcellulose) (HPC)
[2] = dose: 200.0 mg/kg/injection, schedule: Q01DX001 (ip), vehicle: Klucel (hydroxypropylcellulose) (HPC)
[3] = dose: 400.0 mg/kg/injection, schedule: Q01DX001 (ip), vehicle: Klucel (hydroxypropylcellulose) (HPC)
[4] = dose: 100.0 mg/kg/injection, schedule: Q01DX001 (ip), vehicle: carboxymethylcellulose (CMC)
[5] = dose: 200.0 mg/kg/injection, schedule: Q01DX001 (ip), vehicle: carboxymethylcellulose (CMC)
[6] = dose: 400.0 mg/kg/injection, schedule: Q01DX001 (ip), vehicle: carboxymethylcellulose (CMC)
[7] = dose: 100.0 mg/kg/injection, schedule: Q04DX003 (ip), vehicle: saline with Tween-80
[8] = dose: 200.0 mg/kg/injection, schedule: Q04DX003 (ip), vehicle: saline with Tween-80
[9] = dose: 100.0 mg/kg/injection, schedule: Q01DX009 (ip), vehicle: saline with Tween-80
[10] = dose: 200.0 mg/kg/injection, schedule: Q01DX009 (ip), vehicle: saline with Tween-80
[11] = dose: 400.0 mg/kg/injection, schedule: Q01DX009 (ip), vehicle: saline with Tween-80
[12] = dose: 100.0 mg/kg/injection, schedule: Q04DX003 (ip), vehicle: Klucel (hydroxypropylcellulose) (HPC)
[13] = dose: 200.0 mg/kg/injection, schedule: Q04DX003 (ip), vehicle: Klucel (hydroxypropylcellulose) (HPC)
[14] = dose: 400.0 mg/kg/injection, schedule: Q04DX003 (ip), vehicle: Klucel (hydroxypropylcellulose) (HPC)

Measured: T/C

FC(F)=C(F)I
inactive: dose: 50.0 mg/kg/injection, schedule: Q01DX005 (ip), vehicle: other 102 % of control | dose: 100.0 mg/kg/injection, schedule: Q01DX005 (ip), vehicle: other 87 % of control | dose: 100.0 mg/kg/injection, schedule: Q04DX002 (ip), vehicle: other 98 % of control | dose: 200.0 mg/kg/injection, schedule: Q01DX005 (ip), vehicle: other 94 % of control | dose: 200.0 mg/kg/injection, schedule: Q04DX002 (ip), vehicle: other 104 % of control

CCOC(=O)Cn1c(=O)c2ccccc2c2cc(Br)ccc21
inactive: [1] 89 % of control | [2] 100 % of control | [3] 92 % of control

CSc1cc2c(cc1N)Cc1cc(F)ccc1-2
inactive: [4] 98 % of control | [5] 98 % of control | [6] 95 % of control

O=[N+]([O-])c1ccc(N=NN(CCF)CCF)cc1
inactive: dose: 6.25 mg/kg/injection, schedule: Q01DX Z (ip), vehicle: saline 93 % of control | dose: 10.0 mg/kg/injection, schedule: Q01DX Z (ip), vehicle: saline 97 % of control | dose: 30.0 mg/kg/injection, schedule: Q01DX Z (ip), vehicle: saline 108 % of control

CCCCn1cnc2ccc3[nH]c(C)nc3c2c1=O
inactive: dose: 12.5 mg/kg/injection, schedule: Q01DX001 (ip), vehicle: carboxymethylcellulose (CMC) 104 % of control | dose: 25.0 mg/kg/injection, schedule: Q01DX001 (ip), vehicle: carboxymethylcellulose (CMC) 96 % of control

O=C(OCc1ccccc1CN1CCOCC1)c1ccc([N+](=O)[O-])cc1Cl
inactive: dose: 25.0 mg/kg/injection, schedule: Q04DX002 (ip), vehicle: Klucel (hydroxypropylcellulose) (HPC) 92 % of control | dose: 50.0 mg/kg/injection, schedule: Q04DX002 (ip), vehicle: Klucel (hydroxypropylcellulose) (HPC) 106 % of control | dose: 100.0 mg/kg/injection, schedule: Q04DX002 (ip), vehicle: Klucel (hydroxypropylcellulose) (HPC) 100 % of control

CC(=O)c1cccc(NC(=O)Nc2cccc(C)n2)c1
inactive: dose: 100.0 mg/kg/injection, schedule: Q01DX009 (ip), vehicle: Klucel (hydroxypropylcellulose) (HPC) 106 % of control | dose: 200.0 mg/kg/injection, schedule: Q01DX009 (ip), vehicle: Klucel (hydroxypropylcellulose) (HPC) 102 % of control | dose: 400.0 mg/kg/injection, schedule: Q01DX009 (ip), vehicle: Klucel (hydroxypropylcellulose) (HPC) 101 % of control

CCN1CCc2cc3c(cc2C1)OCO3
inactive: dose: 10.0 mg/kg/injection, schedule: Q01DX001 (ip), vehicle: carboxymethylcellulose (CMC) 98 % of control | dose: 20.0 mg/kg/injection, schedule: Q01DX001 (ip), vehicle: carboxymethylcellulose (CMC) 93 % of control | dose: 40.0 mg/kg/injection, schedule: Q01DX001 (ip), vehicle: carboxymethylcellulose (CMC) 94 % of control | dose: 80.0 mg/kg/injection, schedule: Q01DX001 (ip), vehicle: carboxymethylcellulose (CMC) 96 % of control

O=C(Nc1cc(C(F)(F)F)ccc1Cl)Nc1cc(Cl)c(Oc2ccc(Cl)cc2)cc1S(=O)(=O)O
inactive: dose: 100.0 mg/kg/injection, schedule: Q04DX003 (ip), vehicle: saline sonified 105 % of control | dose: 200.0 mg/kg/injection, schedule: Q04DX003 (ip), vehicle: saline sonified 100 % of control

CCCCCCCCCCCSCCSCCSCCCCCCCCCCC
inactive: [1] 88 % of control | [2] 95 % of control | [3] 90 % of control

N#C/C(=C\c1ccncc1)c1ccccc1Cl
inactive: dose: 100.0 mg/kg/injection, schedule: Q01DX001 (ip), vehicle: other 91 % of control | dose: 200.0 mg/kg/injection, schedule: Q01DX001 (ip), vehicle: other 89 % of control | dose: 400.0 mg/kg/injection, schedule: Q01DX001 (ip), vehicle: other 96 % of control

N#CC1(O)C(Cl)(Cl)CCCC1(Cl)Cl
inactive: dose: 6.25 mg/kg/injection, schedule: Q01DX009 (ip), vehicle: saline with Tween-80 91 % of control | dose: 12.5 mg/kg/injection, schedule: Q01DX009 (ip), vehicle: saline with Tween-80 97 % of control | dose: 25.0 mg/kg/injection, schedule: Q01DX009 (ip), vehicle: saline with Tween-80 94 % of control

CC(=O)OCCC/C(=C\c1ccc(N(C)C)cc1)[N+](=O)[O-]
inactive: [4] 91 % of control | [5] 91 % of control | [6] 98 % of control

CSC(=S)NNC(=O)c1ccc(C)cc1
inactive: dose: 20.0 mg/kg/injection, schedule: Q04DX003 (ip), vehicle: saline 96 % of control | dose: 40.0 mg/kg/injection, schedule: Q04DX003 (ip), vehicle: saline 98 % of control | dose: 75.0 mg/kg/injection, schedule: Q01DX001 (ip), vehicle: saline 98 % of control | dose: 75.0 mg/kg/injection, schedule: Q04DX003 (ip), vehicle: saline 105 % of control

Cc1ccc([Si](C)Cl)cc1
inactive: [7] 98 % of control | [8] 94 % of control | dose: 400.0 mg/kg/injection, schedule: Q04DX003 (ip), vehicle: saline with Tween-80 90 % of control

O=[N+]([O-])c1cccc(OCCCc2ccccc2)c1
inactive: [9] 98 % of control | [10] 102 % of control | [11] 112 % of control

N=C(N)SCCN
inactive: dose: 100.0 mg/kg/injection, schedule: Q01DX001 (ip), vehicle: saline 97 % of control | dose: 100.0 mg/kg/injection, schedule: Q01DX009 (ip), vehicle: saline 103 % of control | dose: 200.0 mg/kg/injection, schedule: Q01DX001 (ip), vehicle: saline 90 % of control | dose: 200.0 mg/kg/injection, schedule: Q01DX009 (ip), vehicle: saline 111 % of control | dose: 400.0 mg/kg/injection, schedule: Q01DX001 (ip), vehicle: saline 118 % of control

CN(C)CCC(=O)c1ccc2ccccc2c1
inactive: dose: 9.38 mg/kg/injection, schedule: Q01DX001 (ip), vehicle: saline 100 % of control | dose: 18.75 mg/kg/injection, schedule: Q01DX001 (ip), vehicle: saline 101 % of control | dose: 37.5 mg/kg/injection, schedule: Q01DX001 (ip), vehicle: saline 105 % of control

CCOC(=O)c1ccc(NC(=S)NC(=O)c2ccco2)cc1
inactive: [9] 98 % of control | [12] 102 % of control | [10] 98 % of control | [13] 98 % of control | [11] 98 % of control | [14] 96 % of control

C[As](C)Sc1ccnc(S[As](C)C)n1
inactive: [9] 102 % of control | [7] 96 % of control | [10] 107 % of control | [8] 96 % of control

c1c[nH]c(N=Nc2ccc(-c3ccc(N=Nc4ncc[nH]4)cc3)cc2)n1
inactive: dose: 50.0 mg/kg/injection, schedule: Q01DX009 (ip), vehicle: saline with Tween-80 97 % of control | [9] 90 % of control | [10] 90 % of control

CCCCCCCCCCCCCCCCN(C(C)C)S(=O)(=O)c1ccc(Cl)c([N+](=O)[O-])c1
inactive: dose: 100.0 mg/kg/injection, schedule: Q01DX009 (ip), vehicle: saline sonified 106 % of control | [12] 91 % of control | dose: 200.0 mg/kg/injection, schedule: Q01DX009 (ip), vehicle: saline sonified 96 % of control | [13] 94 % of control | dose: 400.0 mg/kg/injection, schedule: Q01DX009 (ip), vehicle: saline sonified 89 % of control | [14] 93 % of control

O=C(Nc1ccccc1)N1CCC2N(C(=O)Nc3ccccc3)CCC3N(C(=O)Nc4ccccc4)CCC1N23 (centres undefined)
inactive: [12] 94 % of control | [13] 96 % of control | [14] 100 % of control

COc1c(Br)cc(C(=O)C(C)C)c(O)c1C
inactive: dose: 75.0 mg/kg/injection, schedule: Q04DX003 (ip), vehicle: Klucel (hydroxypropylcellulose) (HPC) 95 % of control | dose: 150.0 mg/kg/injection, schedule: Q04DX003 (ip), vehicle: Klucel (hydroxypropylcellulose) (HPC) 103 % of control | dose: 300.0 mg/kg/injection, schedule: Q04DX003 (ip), vehicle: Klucel (hydroxypropylcellulose) (HPC) 95 % of control

CCCCC(=O)N/N=C\c1c(O)cc(OC)cc1OC
inactive: [4] 87 % of control | [5] 87 % of control | [6] 93 % of control

O=[N+]([O-])c1cccc(C=Nc2cccc([N+](=O)[O-])c2)c1
inactive: dose: 100.0 mg/kg/injection, schedule: Q04DX003 (ip), vehicle: gum acacia 95 % of control | dose: 200.0 mg/kg/injection, schedule: Q04DX003 (ip), vehicle: gum acacia 93 % of control | dose: 400.0 mg/kg/injection, schedule: Q04DX003 (ip), vehicle: gum acacia 98 % of control
